Read-outs that look alike come from different tables or passages of the source.
Test: Phase I study CXR1002-001: plasma pharmacokinetics (LC-MS/MS)
Format: in vivo, human
Details: human, plasma, oral, person, plasma; for concentration at 24 h: 24 hr (Day 2); for concentration at 168 h: 168 hr (Day 8); for concentration at 336 h: 336 hr (Day 15); for concentration at 360 h: 360 hr (Day 16); for concentration at 504 h: 504 hr (Day 22); for concentration at 672 h: 672 hr (Day 29); for concentration at 696 h: 696 hr (Day 30); for concentration at 840 h: 840 hr (Day 36)
Description: PK samples, PD (fasting) samples, blood glucose, and blood triglyceride samples, were taken over a 6-week period.
Dose limiting toxicity (DLT) will be based on the toxicity assessments over the first 3-week period of the repeat dosing schedule. PK samples (single blood sample) were taken on the following basis: • Every 6 weeks during the repeat dosing phase • If dosing is interrupted or stopped, samples will be taken at intervals according to patient convenience • PK sampling for safety evaluation may take place at any time, as clinically indicated
Plasma samples were collected after the single 50 mg dose at the following timepoints: Pre-dose, and then 0.25, 0.5, 0.75, 1, 1.5, 2, 3, 4, 6, 24, 48, and 72 hours after administration and then once weekly at weeks 2, 3, 4, 5, and 6 (days 8, 15, 22, 29, and 36). For patients treated with the weekly repeat dose, plasma samples were collected at the following timepoints: Pre-dose and then 2, 3, 4 and 24 hours after administration for a total of 6 weeks. Thereafter a single sample was collected every 6 weeks for monitoring of exposure during long term treatment. Plasma samples were processed at site and stored at −80° C. prior to batch shipment to the analytical laboratory.

[1] = 1000 mg, Patient 040, 1000 mg, read-out: Concentration
[2] = 1200 mg, Patient 033, 1200 mg, read-out: Concentration

`O=C(O)C(F)(F)C(F)(F)C(F)(F)C(F)(F)C(F)(F)C(F)(F)C(F)(F)F` [CXR1002] gave a concentration at 4 h [1] of 190 µM, a concentration at 24 h [1] of 148 µM and a concentration at 168 h [1] of 120 µM. The concentration at 170 h [1] was 368 µM, the concentration at 171 h [1] was 343 µM and the concentration at 172 h (1000 mg, Patient 040, 1000 mg, 172 hr, read-out: Concentration) was 326 µM. It also gave a concentration at 192 h (1000 mg, Patient 040, 1000 mg, 192 hr (Day 9), read-out: Concentration) of 272 µM, a concentration at 336 h [1] of 305 µM and a concentration at 338 h [1] of 487 µM. For the same compound, the concentration at 339 h [1] was 427 µM, the concentration at 340 h [1] was 476 µM and the concentration at 360 h [1] was 485 µM. It also gave a concentration at 504 h [1] of 353 µM, a concentration at 506 h [1] of 502 µM and a concentration at 507 h (1000 mg, Patient 040, 1000 mg, 507 hr, read-out: Concentration) of 554 µM. The concentration at 508 h (1000 mg, Patient 040, 1000 mg, 508 hr, read-out: Concentration) was 515 µM, the concentration at 528 h (1000 mg, Patient 040, 1000 mg, 528 hr (Day 23), read-out: Concentration) was 525 µM and the concentration at 672 h [1] was 490 µM. For the same compound, the concentration at 674 h [1] was 558 µM, the concentration at 675 h [1] was 533 µM and the concentration at 676 h [1] was 607 µM. For the same compound, the concentration at 696 h [1] was 697 µM, the concentration at 840 h [1] was 574 µM and the concentration at 842 h [1] was 626 µM. It also gave a concentration at 843 h (1000 mg, Patient 040, 1000 mg, 843 hr, read-out: Concentration) of 748 µM, a concentration at 864 h (1000 mg, Patient 040, 1000 mg, 864 hr (Day 37), read-out: Concentration) of 826 µM and a concentration at 0 h (1200 mg, Patient 033, 1200 mg, 0 hr (pre-dose)) of 0 nM. For the same compound, the concentration at 2 h (1200 mg, Patient 033, 1200 mg, 2 hr, read-out: Concentration) was 441 µM, the concentration at 3 h (1200 mg, Patient 033, 1200 mg, 3 hr, read-out: Concentration) was 396 µM and the concentration at 4 h [2] was 374 µM. For the same compound, the concentration at 24 h [2] was 371 µM, the concentration at 168 h [2] was 317 µM and the concentration at 170 h [2] was 735 µM. It also gave a concentration at 171 h [2] of 657 µM, a concentration at 172 hr (1200 mg, Patient 033, 1200 mg, 172 hr, read-out: Concentration) of 637 µM and a concentration at 192 hr (1200 mg, Patient 033, 1200 mg, 192 hr (Day 9), read-out: Concentration) of 591 µM. The concentration at 336 h [2] was 637 µM, the concentration at 338 h [2] was 926 µM and the concentration at 339 h [2] was 841 µM. It also gave a concentration at 340 h [2] of 817 µM, a concentration at 360 h [2] of 915 µM and a concentration at 504 h [2] of 713 µM. It also gave a concentration at 506 h [2] of 1150 µM, a concentration at 507 hr (1200 mg, Patient 033, 1200 mg, 507 hr, read-out: Concentration) of 1060 µM and a concentration at 508 hr (1200 mg, Patient 033, 1200 mg, 508 hr, read-out: Concentration) of 1010 µM. It also gave a concentration at 672 h [2] of 1020 µM, a concentration at 674 h [2] of 1230 µM and a concentration at 675 h [2] of 1110 µM. The concentration at 676 h [2] was 1100 µM, the concentration at 696 h [2] was 1110 µM and the concentration at 840 h [2] was 1040 µM. For the same compound, the concentration at 842 h [2] was 1110 µM, the concentration at 843 hr (1200 mg, Patient 033, 1200 mg, 843 hr, read-out: Concentration) was 1230 µM and the concentration at 844 hr (1200 mg, Patient 033, 1200 mg, 844 hr, read-out: Concentration) was 1200 µM. For the same compound, the concentration at 864 hr (1200 mg, Patient 033, 1200 mg, 864 hr (Day 37), read-out: Concentration) was 1320 µM, the concentration at 2 hr (1200 mg, Patient 034, 1200 mg, 2 hr, read-out: Concentration) was 440 µM and the concentration at 3 hr (1200 mg, Patient 034, 1200 mg, 3 hr, read-out: Concentration) was 401 µM.
